For 17 compounds, TGI and GI50 results are on record in PubChem BioAssay (NCI).

Holding throughout (assay): growth of human tumour cells (NCI), 48 h
Assay [1] deals with U251 CNS.
Assay [2] relates to MALME-3M melanoma.
Assay [3] relates to OVCAR-8 ovarian.
Assay [4] has as its system SF-295 CNS.
For assay [5], the system named is IGROV1 ovarian.
The subject of assay [6] is SR leukemia.
Assay [7] deals with K-562 leukemia.
The subject of assay [8] is HCT-15 colon.
For assay [9], the system named is SK-MEL-5 melanoma.
The test system of assay [10] is TK-10 renal.

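Exposure lasted 48 hours, with cells grown in 96-well plates and compounds tested at five concentrations. GI50 = concentration required for 50% inhibition of growth. Definition used: TGI = concentration required for complete inhibition of growth.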 Some results are limits rather than exact numbers.

For the compound `C=CCC1([C@H](C)[C@@H](OC(C)=O)c2cc(OC)c(OC)c(OC)c2)C[C@@H](OC)CCC1=O` (stereo not given in full), the TGI in assay [1] came to 26.7 µM; in assay [2], 43.1 µM; in assay [3], 54.2 µM; in assay [4], 39.7 µM; in assay [5], 33.5 µM; in assay [6], 91.7 µM. The TGI in assay [7] is above 100 µM; in assay [8], 40.8 µM; in [9], above 100 µM; in assay [10] it was above 100 µM.
For the compound `COC(=O)[C@H](Cc1cn(C)cn1)NC(=O)[C@H](Cc1c[nH]c2ccccc12)NC(=O)Nc1cc(C(F)(F)F)cc(C(F)(F)F)c1`, the GI50 in [1], in assay [2], in assay [3], in assay [4], in [5] and in [6] was above 10 µM throughout. In addition, the GI50 in assay [7], in [8], in assay [9] and in assay [10] was above 10 µM each time. Also, the TGI in assay [1], in [2], in assay [3], in [4], in assay [5] and in assay [6] was above 10 µM each time. Further, the TGI in assay [7], in [8], in assay [9] and in [10] was above 10 µM in each case.
Regarding `CC(=O)NNc1nc(C)c(C(=O)NNC(=O)C(=O)Nc2ccccc2C#N)s1`, the TGI in assay [1], in assay [2], in [3], in assay [4], in [5] and in assay [6] was above 100 µM each time. For the same compound, the TGI in assay [7], in assay [8], in assay [9] and in [10] was above 100 µM in each case.
Turning to `COc1ccccc1NC(=O)C1=C(C)NC(C)=C(C(=O)Nc2ccccc2OC)C1c1ccccc1F`, the TGI in [1], in assay [2], in assay [3], in [4], in assay [5] and in assay [6] was above 100 µM each time. The TGI in assay [7], in assay [8], in assay [9] and in assay [10] was above 100 µM each time.
Regarding `COc1cccc(NC(=O)CC(=O)N2N=C(N(CCC#N)c3ccc(Cl)cc3)CC2c2ccccc2)c1` (stereo not given), the TGI in assay [1], in assay [2], in assay [3], in assay [4], in assay [5] and in assay [6] was above 100 µM throughout. For the same compound, the TGI in [7], in [8], in [9] and in assay [10] was above 100 µM throughout.
Take `COc1nc(NC2OCC(OC(C)=O)C(OC(C)=O)C2OC(C)=O)c(N=CC=Nc2c(NC3OCC(OC(C)=O)C(OC(C)=O)C3OC(C)=O)nc(OC)n(C)c2=O)c(=O)n1C` (stereo not given): the TGI in assay [1], in assay [2], in assay [3], in [4], in [5] and in assay [6] was above 100 µM throughout. For the same compound, the TGI in [7], in assay [8], in assay [9] and in [10] was above 100 µM in each case.
Turning to `CCN(CC)S(=O)(=O)c1ccc(OC)c(Nc2ncc(-c3ccccc3)o2)c1`, the GI50 in assay [1] was above 18.7 µM; in assay [2], above 25 µM; in [3], above 25 µM; in assay [4], above 16.5 µM; in assay [5] it was above 25 µM; in assay [6], above 14.1 µM. Besides, the GI50 in assay [7] was above 16.2 µM; in assay [8], above 15.5 µM; in assay [9], above 12.2 µM; in assay [10], above 17.4 µM. Besides, the TGI in assay [1], in [2], in assay [3], in assay [4], in assay [5] and in assay [6] was above 25 µM throughout. The TGI in assay [7], in assay [8], in assay [9] and in assay [10] was above 25 µM each time.
As for `CNC(=O)n1ccc2cc(Oc3ccnc(NC(=O)c4ccc(C5CCN(CCO)CC5)cc4)c3)c(OCCOC)cc21`, the GI50 was 3.15 µM in assay [1]; 1.62 µM in assay [2]; 4.51 µM in [3]; 8.54 µM in [4]; 5.65 µM in [5]; 2.27 µM in assay [6]. Besides, the GI50 is 0.529 µM in [7], 4.42 µM in assay [8], 1.96 µM in assay [9] and 15.3 µM in [10]. Also, the TGI in assay [1] turned out to be 12.3 µM; in assay [2], 3.15 µM; in assay [3] it was 19.5 µM; in assay [4] it was 21 µM; in [5], 20.7 µM; in [6], 25 µM. The TGI was 10.6 µM in [7], 15.6 µM in assay [8], 3.86 µM in assay [9] and 29.6 µM in [10].
As to `CNC(=O)c1cncc(/C=C/c2ccccc2C)c1`, the GI50 in assay [1], in assay [2], in [3], in assay [4], in assay [5] and in [6] was above 25 µM in each case. The GI50 in [7], in assay [8], in [9] and in assay [10] was above 25 µM each time. Further, the TGI in assay [1], in assay [2], in [3], in assay [4], in [5] and in [6] was above 25 µM throughout. In addition, the TGI in assay [7], in assay [8], in assay [9] and in [10] was above 25 µM each time.
Consider `C=CCc1c2c(c(OC)c3ccoc13)C(=O)/C(=C/c1ccccc1OC)O2`, for which the GI50 was 3.53 µM in assay [1]; 19.8 µM in assay [2]; 3.87 µM in assay [3]; 3.67 µM in assay [4]; 5.27 µM in assay [5]; 3.16 µM in [6]. The GI50 in [7] was 3.51 µM; in assay [8], 3.6 µM; in assay [9], 3.91 µM; in assay [10] it was 6.5 µM. Further, the TGI in assay [1], in assay [2], in assay [3], in assay [4], in assay [5] and in assay [6] was above 100 µM throughout. The TGI in assay [7] is above 100 µM; in assay [8], above 100 µM; in [9], 92 µM; in [10], above 100 µM.
Take `COc1cc(C2c3cc4c(cc3OC(N3CCCC3)C2C)OCO4)cc(OC)c1OC` (stereo not given): the TGI was 13.2 µM in assay [1]; 34.7 µM in [2]; 9.82 µM in assay [3]; 2.55 µM in assay [4]; 30.2 µM in [5]; above 17.1 µM in assay [6]. Further, the TGI was above 19.1 µM in assay [7], 13 µM in assay [8], 5.06 µM in [9] and 30.2 µM in [10].
Turning to `CCOC(=O)C1=C(C)N(Cc2ccccc2)C(C)=C(C(=O)OCC)C1c1ccccc1O`, the TGI was above 100 µM in assay [1]; 73.2 µM in assay [2]; above 100 µM in assay [3]; above 100 µM in assay [4]; above 100 µM in [5]; 54.9 µM in assay [6]. Further, the TGI is above 100 µM in assay [7], above 100 µM in assay [8], 30.3 µM in assay [9] and above 100 µM in [10].
Consider `CC/C=C\C=C/C(=O)N/C=C/CC1Cc2cccc(O)c2C(=O)O1` (stereo not given), for which the GI50 in assay [1] was 23.3 µM; in assay [2], 41.5 µM; in assay [3], 30 µM; in assay [4], 33.1 µM; in [5], 38 µM; in assay [6], 2.22 µM. Moreover, the GI50 in assay [7] is 11.5 µM; in assay [8] it was 13.6 µM; in [9], 5.63 µM; in [10], 62 µM. The TGI is above 100 µM in assay [1]; above 100 µM in assay [2]; above 100 µM in [3]; above 100 µM in assay [4]; above 100 µM in assay [5]; 6.2 µM in [6]. Besides, the TGI in assay [7] was above 100 µM; in assay [8], 42 µM; in assay [9], 27.3 µM; in [10], above 100 µM.
Take `COc1ccc(N2C(C)=C(C#N)C34C(=O)N(c5ccccc5)C(=O)C3=C(O)C=CC24O)cc1` (stereo not given): the GI50 in assay [1] is 13 µM; in assay [2] it was 19.2 µM; in assay [3] it was 23.3 µM; in assay [4], 3.49 µM; in [5], 2.11 µM; in assay [6], 5.98 µM. For the same compound, the GI50 is 28.3 µM in assay [7], 13.8 µM in assay [8], 11.4 µM in assay [9] and 21.5 µM in assay [10]. Also, the TGI in assay [1] was 25.7 µM; in assay [2] it was 53.4 µM; in assay [3] it was above 100 µM; in [4], 15.1 µM; in assay [5], 21.1 µM; in assay [6] it was 50.4 µM. In addition, the TGI was above 100 µM in assay [7], 33.8 µM in assay [8], 28.2 µM in assay [9] and 89 µM in [10].
With `Cc1ccc2c(ccc3c[n+]4c5ccccc5ccc4n32)c1`, the GI50 in [1] is 0.361 µM; in assay [2], 0.316 µM; in assay [3] it was 0.688 µM; in [4], 1.56 µM; in [5], 1.52 µM; in assay [6], 1.47 µM. Also, the GI50 in [7] was 0.584 µM; in assay [8], 7.33 µM; in assay [9], 1.01 µM; in assay [10], 4.11 µM. Further, the TGI turned out to be 2.12 µM in assay [1]; 1.59 µM in [2]; 9.72 µM in assay [3]; 6.91 µM in assay [4]; 18.6 µM in assay [5]; 16.7 µM in assay [6]. Besides, the TGI in assay [7] is 14.4 µM; in assay [8] it was above 100 µM; in assay [9] it was 2.33 µM; in assay [10] it was 25.1 µM.
As for `CN1CCN(CCc2cccc(C(=O)c3cnn(-c4ccc(F)cc4)c3N)c2)CC1`, the GI50 in assay [1], in assay [2], in [3], in assay [4], in assay [5] and in assay [6] was above 25 µM in each case. The GI50 in [7], in [8], in assay [9] and in [10] was above 25 µM each time. In addition, the TGI in assay [1], in assay [2], in [3], in [4], in assay [5] and in assay [6] was above 25 µM in each case. Further, the TGI in [7], in [8], in assay [9] and in [10] was above 25 µM in each case.
Regarding `Cc1[c-]onc1C.Cc1[c-]onc1C.[Ag].[Ag].[NH-]S(=O)(=O)c1ccc(N=Nc2cc(N=Nc3ccc(S([NH-])(=O)=O)cc3)c3c(NC(=O)C(Cl)Cl)cccc3c2OC(=O)C(Cl)Cl)cc1`, the GI50 in [1] was 8.45 µM; in assay [2] it was 9.07 µM; in assay [3], 10.1 µM; in assay [4] it was 33.9 µM; in assay [5], 6.53 µM; in assay [6], 9.59 µM. Moreover, the GI50 in assay [7] was 3.99 µM; in assay [8], 9.82 µM; in assay [9] it was 1.71 µM; in assay [10], 10 µM. Further, the TGI in assay [1] was 18.8 µM; in [2] it was 21.2 µM; in [3], 36.4 µM; in assay [4] it was above 50 µM; in assay [5], 26.4 µM; in [6] it was 42.5 µM. In addition, the TGI in assay [7] amounted to 32.2 µM; in assay [8], 32.1 µM; in assay [9] it was 6.07 µM; in [10], 18.2 µM.
